Test results: US20050282818A1, “Ubiquitin ligase inhibitors” (Rigel Pharmaceuticals, Inc., priority 2004, published 2005)

Legend:
APC11/APC2 = APC11/APC2 (Homo sapiens, UniProt Q9NYG5+Q9UJX6); test: APC-11/APC-2 ligase assay (APC auto ubiquitination); format: biochemical; conditions: APC assay
Outline: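 His-tagged APC was captured on nickel plates with human E1 (5 ng/well), UbcH5c (20 ng/well), APC (100 ng/well) and Flag-ubiquitin (100 ng/well) in a Tris pH 7.6 reaction buffer containing 2.5 mM ATP, for 1 hour at room temperature. Read-out was anti-Flag/HRP chemiluminescence. IC50 was set against a DMSO control, typically from 6 or 8 concentrations.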

TRAF6/Uev1A/Ubc13 = target: T1, TRAF6/Uev1A/Ubc13 (Homo sapiens, UniProt Q9Y4K3); test: TRAF6/Uev1A/Ubc13 plate-based ubiquitin ligase assay; format: biochemical
T1 sequence (Q9Y4K3 1-522): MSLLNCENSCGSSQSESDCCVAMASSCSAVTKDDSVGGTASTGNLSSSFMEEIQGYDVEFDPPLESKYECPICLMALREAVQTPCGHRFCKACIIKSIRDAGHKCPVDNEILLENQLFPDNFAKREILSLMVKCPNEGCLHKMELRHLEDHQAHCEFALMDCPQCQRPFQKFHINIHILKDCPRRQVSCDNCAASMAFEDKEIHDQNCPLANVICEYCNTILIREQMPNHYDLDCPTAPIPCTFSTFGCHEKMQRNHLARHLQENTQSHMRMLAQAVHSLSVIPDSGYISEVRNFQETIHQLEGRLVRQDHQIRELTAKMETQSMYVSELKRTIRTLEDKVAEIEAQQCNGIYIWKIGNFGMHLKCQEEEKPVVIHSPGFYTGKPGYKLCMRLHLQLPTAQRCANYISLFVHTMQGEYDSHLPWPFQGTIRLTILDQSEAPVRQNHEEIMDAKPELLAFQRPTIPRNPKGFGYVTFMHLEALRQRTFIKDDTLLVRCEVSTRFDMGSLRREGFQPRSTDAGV
Outline: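 Ligase activity was read as luminescence from anti-Flag/HRP detection of Flag-ubiquitin bound to casein-blocked Ni-plates alongside His-ubiquitin after a 1 h room-temperature reaction. Buffer: 62.5 mM Tris pH 7.5, 6.25 mM MgCl2, 1.0 mM DTT, 2 μM ATP; E1, Uev1a/Ubc13 and TRAF6 added last to start. IC50s derived across compound concentrations.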

ROC1/CUL1 = target: T2, ROC1/CUL1 (Homo sapiens, UniProt P62877+Q13616); test: ROC1/CUL1 ubiquitin ligase assay (SCF assay); format: biochemical
T2 construct: made in house
Procedure: Inhibition of ubiquitin ligase activity of E1+E2+E3 was measured using the protocol as described in WO 01/75145 with E3 as the ROC1/CUL1, ROC1/CUL2, or ROC2/CUL5 complex.
The wells of nickel-substrate 96-well plates (Pierce Chemical) are blocked with 100 μl of 1 casein/phosphate buffered saline (PBS) for 1 hour at room temperature, then washed with 200 μl of PBST (0.1% Tween-20 in PBS) 3 times. To each well is added the following Flag-ubiquitin (see above) reaction solution: 62.5 mM Tris pH 7.5, 6.25 mm MgCl2, 0.75 mM DTT, 2.5 mM ATP, 2.5 mM NaF1, 2.5 nM Okadaic acid, 100 ng Flag-ubiquitin (made as described above).
The buffer solution is brought to a final volume of 80 μl with Milipore-filtered water, followed by the addition of 10 μl DMSO.
To the above solution is then added 10 μl of ubiquitination enzymes in 20 mM Tris buffer, pH 7.5, and 5% glycerol. E2-Ubch5c and E3-His ROC1/Cul1, ROC1/CUL2, and ROC2/CUL5 are made as described in WO 01/75145. E1 is obtained commercially (Affiniti Research Products, Exeter, U. K.). The following amounts of each enzyme are used for these assays: 5 ng/well of E1; […] E2; and 100 ng/well His-E3. Varying amounts of compounds according to the invention are added and the reaction allowed to proceed at room temperature for 1 hour.
Following the ubiquitination reaction, the wells are washed with 200 μl of PBST 3 times. For measurement of the enzyme-bound ubiquitin, 100 gel of Mouse anti-Flag (1:10,000) and anti-Mouse Ig-HRP (1:15, 000) in PBST are added to each well and allowed to incubate at room temperature for 1 hour. The wells are then washed with 200 μl of PBST 3 times, followed by the addition of 100 μl of luminol substrate (1/5 dilution). Luminescence for each well is then measured using a fluorimeter.
Table 2 below illustrates the inhibitory activity of the compounds of the invention determined by the TRAF6/Uev1A/Ubc13 assay as well as in the ICAM, APC and the ROC1/CUL1 Ubiquitin Ligase Assay (SCF Assay). The IC50 values were determined using a various concentrations of the compounds.

H1299 cells = test: Cell proliferation PAD assay, H1299; format: cell-based; conditions: Homo sapiens, NCI-H1299, 3pt, 48 hours, read-out: H1299 3pt
Outline: (§1)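 Each line, seeded at 2,000 cells/well, received duplicate 6.3-fold compound dilutions (10 mM stock, diluted 500× into medium) one day after plating. Exposure lasted 48 h; fixed cells were DAPI-stained and photographed, and images were analysed for live, apoptotic and dead cell numbers.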

A549 cells = test: Cell proliferation PAD assay, A549; format: cell-based; conditions: Homo sapiens, 3pt, 48 hours, read-out: A549 3pt
Outline: as §1

[1] = tested on: ICAM-1 expression in A549 cells; test: ICAM assay (IL-1 induced ICAM-1/CD54 expression in A549 cells); format: cell-based, human; conditions: Homo sapiens, A549, ICAM assay
Outline: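 Luminescent immunostaining (anti-CD54, then anti-mouse IgG, 1 h) quantifies ICAM-1 on A549 cells induced 4 h at 37° C by IL-1 (4 μl of 25 ng/ml added). Compound is added 1 h before the cytokine to cells plated overnight at 10,000 per well.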

T2 sequence (P62877 whole entry): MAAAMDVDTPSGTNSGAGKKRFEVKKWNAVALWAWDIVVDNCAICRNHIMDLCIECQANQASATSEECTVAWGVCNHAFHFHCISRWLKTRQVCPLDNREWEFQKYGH
T2 sequence (Q13616 whole entry): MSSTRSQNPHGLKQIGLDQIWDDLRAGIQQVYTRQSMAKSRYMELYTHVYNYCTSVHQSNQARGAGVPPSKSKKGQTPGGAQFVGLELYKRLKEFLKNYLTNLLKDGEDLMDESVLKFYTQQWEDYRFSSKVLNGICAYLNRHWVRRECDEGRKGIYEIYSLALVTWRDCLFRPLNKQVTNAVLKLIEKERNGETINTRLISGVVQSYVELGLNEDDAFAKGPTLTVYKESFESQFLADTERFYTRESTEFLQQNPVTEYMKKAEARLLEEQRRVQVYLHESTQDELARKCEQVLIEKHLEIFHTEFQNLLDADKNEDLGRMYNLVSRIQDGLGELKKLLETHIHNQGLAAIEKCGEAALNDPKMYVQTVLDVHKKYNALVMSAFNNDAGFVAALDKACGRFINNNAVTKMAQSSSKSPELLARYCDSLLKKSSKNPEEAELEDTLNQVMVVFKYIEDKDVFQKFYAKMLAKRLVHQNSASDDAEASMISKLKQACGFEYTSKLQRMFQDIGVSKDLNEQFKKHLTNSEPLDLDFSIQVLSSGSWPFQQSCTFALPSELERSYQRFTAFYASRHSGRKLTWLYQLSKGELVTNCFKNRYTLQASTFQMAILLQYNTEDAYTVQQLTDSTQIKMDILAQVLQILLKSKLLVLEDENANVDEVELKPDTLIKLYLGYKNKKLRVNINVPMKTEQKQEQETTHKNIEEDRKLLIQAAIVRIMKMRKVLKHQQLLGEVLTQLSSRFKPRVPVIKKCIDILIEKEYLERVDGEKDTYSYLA
APC11/APC2, sequence (Q9NYG5 whole entry): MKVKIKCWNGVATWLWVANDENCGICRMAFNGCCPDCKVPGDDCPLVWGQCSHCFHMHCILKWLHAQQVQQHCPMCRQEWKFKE
APC11/APC2, sequence (Q9UJX6 whole entry): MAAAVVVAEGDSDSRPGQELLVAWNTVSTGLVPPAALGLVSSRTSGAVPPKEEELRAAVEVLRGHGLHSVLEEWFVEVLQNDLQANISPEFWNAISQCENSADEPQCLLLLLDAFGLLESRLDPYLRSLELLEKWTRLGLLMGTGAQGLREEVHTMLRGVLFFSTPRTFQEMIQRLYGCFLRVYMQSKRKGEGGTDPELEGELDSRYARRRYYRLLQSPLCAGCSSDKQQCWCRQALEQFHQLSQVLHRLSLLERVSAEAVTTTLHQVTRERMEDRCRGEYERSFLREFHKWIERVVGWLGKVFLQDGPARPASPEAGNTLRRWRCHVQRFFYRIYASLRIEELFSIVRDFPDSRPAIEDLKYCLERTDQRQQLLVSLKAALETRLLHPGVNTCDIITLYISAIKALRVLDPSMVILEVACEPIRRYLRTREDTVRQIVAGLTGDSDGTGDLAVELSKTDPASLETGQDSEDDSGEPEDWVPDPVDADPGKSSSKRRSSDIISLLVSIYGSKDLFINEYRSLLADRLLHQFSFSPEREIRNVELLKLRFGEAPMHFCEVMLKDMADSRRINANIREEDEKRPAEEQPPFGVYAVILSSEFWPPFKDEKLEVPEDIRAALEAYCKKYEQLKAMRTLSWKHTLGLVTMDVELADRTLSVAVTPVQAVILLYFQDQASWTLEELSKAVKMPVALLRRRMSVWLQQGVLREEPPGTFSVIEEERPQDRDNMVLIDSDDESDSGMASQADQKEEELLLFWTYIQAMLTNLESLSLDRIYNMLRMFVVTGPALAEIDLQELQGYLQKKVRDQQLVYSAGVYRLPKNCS

| IC50 (APC11/APC2) [µM] | IC50 (TRAF6/Uev1A/Ubc13) [µM] | IC50 (ROC1/CUL1) [µM] | IC50 (H1299 cells) [µM] | IC50 (A549 cells) [µM] | IC50 [1] [µM] | Compound |
| --- | --- | --- | --- | --- | --- | --- |
|  | 1 to 20 | ≥ 20 |  |  | ≥ 20 | COC(=O)c1ccc(NS(=O)(=O)c2c(Sc3cccc4cccnc34)ccc3nonc23)cc1 [compound 215, methyl 4-({[5-(quinolin-8-ylthio)-2,1,3-benzoxadiazol-4-yl]sulfonyl}amino)benzoate] |
|  | 1 to 20 | ≥ 20 | 1 to 20 | ≥ 20 |  | O=[N+]([O-])c1ccc(Nc2ccc3[nH]ncc3c2)c2nonc12 [compound 222, N-1H-indazol-5-yl-7-nitro-2,1,3-benzoxadiazol-4-amine] |
|  | < 1 | ≥ 20 | ≥ 20 | ≥ 20 |  | O=S(=O)(c1ccc(Sc2ccc(O)cc2)c2nonc12)N1CCC(O)(c2ccc(Cl)cc2)CC1 [compound 228, 4-(4-chlorophenyl)-1-({7-[(4-hydroxyphenyl)thio]-2,1,3-benzoxadiazol-4-yl}sulfonyl)piperidin-4-ol] |
|  | 1 to 20 | ≥ 20 |  |  | ≥ 20 | O=[N+]([O-])c1ccc(Sc2ccc3ccccc3n2)c2nonc12 [compound 238, 2-[(7-nitro-2,1,3-benzoxadiazol-4-yl)thio]quinoline] |
|  | ≥ 20 | ≥ 20 | ≥ 20 | ≥ 20 |  | O=S(=O)(c1cccc2nsnc12)N1CCC2(CC1)OCc1ccccc12 [compound 257, 1′-(2,1,3-benzothiadiazol-4-ylsulfonyl)-3H-spiro[2-benzofiiran-1,4′-piperidine]] |
|  | ≥ 20 | ≥ 20 |  |  | ≥ 20 | CN1CCN(S(=O)(=O)c2ccc(Sc3ccc4ccccc4n3)c3nonc23)CC1 [compound 268, 2-({7-[(4-methylpiperazin-1-yl)sulfonyl]-2,1,3-benzoxadiazol-4-yl}thio)quinoline] |
|  | 1 to 20 | ≥ 20 |  |  | ≥ 20 | COc1ccc(Cl)cc1NS(=O)(=O)c1ccc(Cl)c2nonc12 [compound 269, 7-chloro-N-(5-chloro-2-methoxyphenyl)-2,1,3-benzoxadiazole-4-sulfonamide] |
| 1 to 20 | 1 to 20 | 1 to 20 |  |  |  | O=C(Nc1cccc2nonc12)C1CN(c2ncccc2Cl)C1 [compound 486, N-(2,1,3-benzoxadiazol-4-yl)-1-(3-chloropyridin-2-yl) azetidine-3-carboxamide] |

Further lines, the compound ahead of its results:

| Compound | IC50 (APC11/APC2) [µM] | IC50 (TRAF6/Uev1A/Ubc13) [µM] | IC50 (ROC1/CUL1) [µM] | IC50 (H1299 cells) [µM] | IC50 (A549 cells) [µM] | IC50 [1] [µM] |
| --- | --- | --- | --- | --- | --- | --- |
| CC1CC(C)CN(c2ccc(S(=O)(=O)N3CC(C)CC(C)C3)c3nonc23)C1 (stereo not shown) [compound 193, 4-(3,5-dimethylpiperidin-1-yl)-7-[(3,5-dimethylpiperidin-1-yl)sulfonyl]-2,1,3-benzoxadiazole] | 1 to 20 | 1 to 20 | 1 to 20 |  |  |  |
| CC1CC(C)CN(S(=O)(=O)c2ccc(Sc3cccc4cccnc34)c3nonc23)C1 (stereo not shown) [compound 197, 8-({7-[(3,5-dimethylpipendin-1-yl)sulfonyl]-2,1,3-benzoxadiazol-4-yl}thio)quinoline] |  | 1 to 20 | ≥ 20 | 1 to 20 | 1 to 20 |  |
| Cc1ccc(N2CCN(S(=O)(=O)c3c(N4CCN(c5cccc(C)n5)CC4)ccc4nonc34)CC2)nc1 [compound 203, 5-[4-(6-methylpyridin-2-yl)piperazin-1-yl]-4-{[4-(5-methylpyridin-2-yl)piperazin-1-yl]sulfonyl}-2,1,3-benzoxadiazole] |  | 1 to 20 | ≥ 20 |  |  | ≥ 20 |
| N#Cc1ccc(N2CCN(c3ccc4nonc4c3S(=O)(=O)N3CCN(c4ccc(C#N)cn4)CC3)CC2)nc1 [compound 210, 6-[4-({5-[4-(5-cyanopyridin-2-yl)piperazin-1-yl]-2,1,3-benzoxadiazol-4-yl}sulfonyl)piperazin-1-yl]nicotinonitrile] |  | ≥ 20 | ≥ 20 | 1 to 20 | ≥ 20 |  |
| N#Cc1ccc(N2CCN(S(=O)(=O)c3c(Sc4cccc5cccnc45)ccc4nonc34)CC2)nc1 [compound 212, 6-(4-{[5-(quinolin-8-ylthio)-2,1,3-benzoxadiazol-4-yl]sulfonyl}piperazin-1-yl)nicotinonitrile] |  | 1 to 20 | ≥ 20 | 1 to 20 | 1 to 20 |  |
| O=[N+]([O-])c1ccc(N2CCC3(CC2)OCc2ccccc23)c2nonc12 [compound 284, 1′-(7-nitro-2,1,3-benzoxadiazol-4-yl)-3H-spiro[2-benzofuran-1,4′-piperidine]] |  | 1 to 20 | ≥ 20 | ≥ 20 | ≥ 20 |  |
